Results: PMC5761851, “Application of a phenotypic drug discovery strategy to identify biological and chemical starting points for inhibition of TSLP production in lung epithelial cells” (PLoS ONE, 2018)

Assays:
Test in all cases: kinase selectivity panel
Type in all cases: biochemical
[1] = target: T1, ALK (Homo sapiens, UniProt Q9UM73); conditions: read-out: percentage of control activity (POC), ALK
T1 construct: purchased Eurofins Pharma Discovery Services (KinaseProfiler; Cerep BioPrint panel)
In short: (§1)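 The compound is screened at 10 μM in duplicate against 125 representative kinases. Selected activities are followed up with a nine-concentration duplicate titration to give IC50.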

[2] = target: T2, FAK (Homo sapiens, UniProt Q05397); conditions: read-out: percentage of control activity (POC), FAK
T2 construct: purchased Eurofins Pharma Discovery Services (KinaseProfiler; Cerep BioPrint panel)
In short: as §1

[3] = target: T3, Lyn (Homo sapiens, UniProt P07948); conditions: read-out: percentage of control activity (POC), Lyn
T3 construct: purchased Eurofins Pharma Discovery Services (KinaseProfiler; Cerep BioPrint panel)
In short: as §1

[4] = target: T4, CaMKIIγ (Homo sapiens, UniProt Q13555); conditions: read-out: percentage of control activity (POC), CaMKIIγ
T4 construct: purchased Eurofins Pharma Discovery Services (KinaseProfiler; Cerep BioPrint panel)
In short: as §1

[5] = target: T5, Yes (Homo sapiens, UniProt P07947); conditions: for remaining activity at 10 µM: read-out: percentage of control activity (POC), Yes
T5 construct: Eurofins Pharma Discovery Services (contract assay service)
In short: as §1

[6] = target: T6, SRPK1 (Homo sapiens, UniProt Q96SB4); conditions: read-out: percentage of control activity (POC), SRPK1
T6 construct: purchased Eurofins Pharma Discovery Services (KinaseProfiler; Cerep BioPrint panel)
In short: as §1

[7] = target: T7, PKCι (Homo sapiens, UniProt P41743); conditions: read-out: percentage of control activity (POC), PKCι
T7 construct: purchased Eurofins Pharma Discovery Services (KinaseProfiler; Cerep BioPrint panel)
T7 sequence (P41743 1-596): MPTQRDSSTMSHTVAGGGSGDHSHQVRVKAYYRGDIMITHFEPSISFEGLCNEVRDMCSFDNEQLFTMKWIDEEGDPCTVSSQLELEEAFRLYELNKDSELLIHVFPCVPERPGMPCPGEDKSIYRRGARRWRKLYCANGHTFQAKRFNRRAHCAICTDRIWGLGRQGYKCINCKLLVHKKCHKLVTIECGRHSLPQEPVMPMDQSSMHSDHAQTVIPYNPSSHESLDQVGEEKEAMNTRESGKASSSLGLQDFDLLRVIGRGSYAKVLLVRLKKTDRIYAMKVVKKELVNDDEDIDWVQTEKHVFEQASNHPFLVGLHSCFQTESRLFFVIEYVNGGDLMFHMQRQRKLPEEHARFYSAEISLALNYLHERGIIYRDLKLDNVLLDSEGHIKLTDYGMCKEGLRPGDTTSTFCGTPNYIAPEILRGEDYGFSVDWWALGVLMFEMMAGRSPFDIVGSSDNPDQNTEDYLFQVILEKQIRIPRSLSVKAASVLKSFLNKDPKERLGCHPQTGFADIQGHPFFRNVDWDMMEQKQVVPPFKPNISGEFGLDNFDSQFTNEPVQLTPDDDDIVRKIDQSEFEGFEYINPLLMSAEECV
In short: as §1

[8] = target: T8, CHK1 (Homo sapiens, UniProt O14757); conditions: read-out: percentage of control activity (POC), CHK1
T8 construct: purchased Eurofins Pharma Discovery Services (KinaseProfiler; Cerep BioPrint panel)
T8 sequence (O14757 1-476): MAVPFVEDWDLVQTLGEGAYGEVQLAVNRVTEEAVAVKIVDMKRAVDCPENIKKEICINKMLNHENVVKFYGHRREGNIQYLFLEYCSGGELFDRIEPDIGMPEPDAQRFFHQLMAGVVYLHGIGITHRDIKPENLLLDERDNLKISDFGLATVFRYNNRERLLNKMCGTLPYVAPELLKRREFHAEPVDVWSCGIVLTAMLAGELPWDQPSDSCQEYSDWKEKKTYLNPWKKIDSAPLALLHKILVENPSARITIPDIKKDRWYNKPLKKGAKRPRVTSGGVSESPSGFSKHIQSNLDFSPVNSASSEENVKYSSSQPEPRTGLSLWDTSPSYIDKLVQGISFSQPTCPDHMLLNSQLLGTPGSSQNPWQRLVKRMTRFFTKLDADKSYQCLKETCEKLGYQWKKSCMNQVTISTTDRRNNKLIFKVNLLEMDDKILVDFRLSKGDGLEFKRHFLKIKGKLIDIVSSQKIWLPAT
In short: as §1

[9] = target: T9, SGK (Homo sapiens, UniProt O00141); conditions: read-out: percentage of control activity (POC), SGK
T9 construct: purchased Eurofins Pharma Discovery Services (KinaseProfiler; Cerep BioPrint panel)
T9 sequence (O00141 1-431): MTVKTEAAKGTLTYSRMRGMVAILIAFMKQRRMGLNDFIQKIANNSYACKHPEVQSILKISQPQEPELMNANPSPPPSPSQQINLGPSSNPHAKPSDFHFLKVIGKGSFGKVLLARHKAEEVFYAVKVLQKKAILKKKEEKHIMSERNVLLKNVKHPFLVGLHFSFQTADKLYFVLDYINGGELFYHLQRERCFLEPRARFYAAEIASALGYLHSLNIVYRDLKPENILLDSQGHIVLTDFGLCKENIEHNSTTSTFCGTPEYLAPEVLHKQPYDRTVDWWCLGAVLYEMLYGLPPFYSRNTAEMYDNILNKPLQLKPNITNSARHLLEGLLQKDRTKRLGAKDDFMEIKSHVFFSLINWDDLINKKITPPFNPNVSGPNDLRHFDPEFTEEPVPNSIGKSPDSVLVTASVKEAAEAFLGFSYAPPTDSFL
In short: as §1

[10] = target: T10, CaMKIIδ (Homo sapiens, UniProt Q13557); conditions: read-out: percentage of control activity (POC), CaMKIIδ
T10 construct: purchased Eurofins Pharma Discovery Services (KinaseProfiler; Cerep BioPrint panel)
In short: as §1

[11] = target: T11, Aurora-A (Homo sapiens, UniProt O14965); conditions: read-out: percentage of control activity (POC), Aurora-A
T11 construct: purchased Eurofins Pharma Discovery Services (KinaseProfiler; Cerep BioPrint panel)
T11 sequence (O14965 1-403): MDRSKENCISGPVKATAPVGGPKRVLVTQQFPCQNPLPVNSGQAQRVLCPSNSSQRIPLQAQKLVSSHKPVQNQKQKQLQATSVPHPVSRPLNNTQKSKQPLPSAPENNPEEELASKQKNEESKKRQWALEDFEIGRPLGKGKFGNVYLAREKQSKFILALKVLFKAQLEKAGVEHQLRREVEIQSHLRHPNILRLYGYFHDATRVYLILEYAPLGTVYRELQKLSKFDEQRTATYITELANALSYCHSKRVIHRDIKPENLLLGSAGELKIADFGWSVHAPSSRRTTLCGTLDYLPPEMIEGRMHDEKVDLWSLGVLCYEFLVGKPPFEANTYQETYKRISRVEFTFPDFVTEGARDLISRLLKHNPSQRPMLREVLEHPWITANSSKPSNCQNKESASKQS
In short: as §1

[12] = target: T12, Met (Homo sapiens, UniProt P08581); conditions: read-out: percentage of control activity (POC), Met
T12 construct: purchased Eurofins Pharma Discovery Services (KinaseProfiler; Cerep BioPrint panel)
In short: as §1

T1 sequence (Q9UM73 19-1620): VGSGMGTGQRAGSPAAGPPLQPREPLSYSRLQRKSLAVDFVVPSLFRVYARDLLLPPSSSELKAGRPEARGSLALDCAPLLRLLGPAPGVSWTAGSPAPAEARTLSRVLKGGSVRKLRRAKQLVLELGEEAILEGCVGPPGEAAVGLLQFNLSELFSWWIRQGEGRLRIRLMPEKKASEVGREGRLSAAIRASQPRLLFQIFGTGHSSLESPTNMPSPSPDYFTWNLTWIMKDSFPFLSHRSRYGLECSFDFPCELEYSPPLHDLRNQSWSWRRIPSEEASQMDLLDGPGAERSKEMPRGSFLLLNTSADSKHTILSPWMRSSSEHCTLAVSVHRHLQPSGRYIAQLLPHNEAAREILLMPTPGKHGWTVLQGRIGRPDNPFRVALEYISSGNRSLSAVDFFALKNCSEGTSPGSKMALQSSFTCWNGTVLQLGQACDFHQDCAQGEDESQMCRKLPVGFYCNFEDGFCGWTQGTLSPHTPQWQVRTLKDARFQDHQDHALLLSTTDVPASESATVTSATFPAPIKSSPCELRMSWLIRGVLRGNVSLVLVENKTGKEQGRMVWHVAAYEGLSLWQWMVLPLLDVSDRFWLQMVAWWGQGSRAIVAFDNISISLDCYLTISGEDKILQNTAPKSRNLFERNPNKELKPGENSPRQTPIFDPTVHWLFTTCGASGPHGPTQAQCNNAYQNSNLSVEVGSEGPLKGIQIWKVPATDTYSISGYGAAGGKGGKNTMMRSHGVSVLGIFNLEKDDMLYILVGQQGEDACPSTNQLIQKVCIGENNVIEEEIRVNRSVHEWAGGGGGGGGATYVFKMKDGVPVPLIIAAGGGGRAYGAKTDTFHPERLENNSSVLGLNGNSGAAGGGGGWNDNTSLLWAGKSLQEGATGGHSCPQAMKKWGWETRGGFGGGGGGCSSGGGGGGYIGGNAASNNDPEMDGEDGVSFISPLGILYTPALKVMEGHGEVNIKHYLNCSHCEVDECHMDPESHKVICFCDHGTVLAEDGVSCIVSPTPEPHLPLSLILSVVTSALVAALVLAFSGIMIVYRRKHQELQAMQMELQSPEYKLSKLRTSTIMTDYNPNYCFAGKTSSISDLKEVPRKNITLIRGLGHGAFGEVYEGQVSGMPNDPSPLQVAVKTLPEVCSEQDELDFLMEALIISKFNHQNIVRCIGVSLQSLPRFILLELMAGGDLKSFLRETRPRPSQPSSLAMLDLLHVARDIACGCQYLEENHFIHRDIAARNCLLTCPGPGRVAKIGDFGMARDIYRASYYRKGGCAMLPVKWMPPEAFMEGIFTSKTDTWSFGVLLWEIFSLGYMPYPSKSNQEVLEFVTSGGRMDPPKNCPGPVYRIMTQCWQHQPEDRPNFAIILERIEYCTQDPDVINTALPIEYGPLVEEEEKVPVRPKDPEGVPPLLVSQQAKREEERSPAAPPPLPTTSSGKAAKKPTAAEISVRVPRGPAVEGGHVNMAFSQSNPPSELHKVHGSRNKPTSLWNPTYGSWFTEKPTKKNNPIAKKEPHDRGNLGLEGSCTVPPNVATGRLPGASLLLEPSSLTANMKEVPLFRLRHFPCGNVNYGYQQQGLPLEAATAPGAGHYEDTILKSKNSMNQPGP
T5 sequence (P07947 whole entry, species assumed): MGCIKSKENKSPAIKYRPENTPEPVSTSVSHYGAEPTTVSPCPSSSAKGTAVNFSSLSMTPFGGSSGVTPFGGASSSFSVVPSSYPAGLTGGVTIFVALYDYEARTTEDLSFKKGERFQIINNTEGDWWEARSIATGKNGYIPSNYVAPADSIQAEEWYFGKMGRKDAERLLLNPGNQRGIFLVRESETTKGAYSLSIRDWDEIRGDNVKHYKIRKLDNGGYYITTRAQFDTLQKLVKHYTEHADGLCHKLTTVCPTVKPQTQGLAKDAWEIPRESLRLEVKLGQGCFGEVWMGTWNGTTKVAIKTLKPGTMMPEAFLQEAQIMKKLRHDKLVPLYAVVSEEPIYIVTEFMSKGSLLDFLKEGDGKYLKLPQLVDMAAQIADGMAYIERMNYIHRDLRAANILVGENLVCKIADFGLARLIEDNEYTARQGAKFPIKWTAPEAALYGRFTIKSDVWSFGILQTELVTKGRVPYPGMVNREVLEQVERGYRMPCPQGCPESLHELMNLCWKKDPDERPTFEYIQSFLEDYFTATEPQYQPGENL
T6 sequence (Q96SB4 whole entry): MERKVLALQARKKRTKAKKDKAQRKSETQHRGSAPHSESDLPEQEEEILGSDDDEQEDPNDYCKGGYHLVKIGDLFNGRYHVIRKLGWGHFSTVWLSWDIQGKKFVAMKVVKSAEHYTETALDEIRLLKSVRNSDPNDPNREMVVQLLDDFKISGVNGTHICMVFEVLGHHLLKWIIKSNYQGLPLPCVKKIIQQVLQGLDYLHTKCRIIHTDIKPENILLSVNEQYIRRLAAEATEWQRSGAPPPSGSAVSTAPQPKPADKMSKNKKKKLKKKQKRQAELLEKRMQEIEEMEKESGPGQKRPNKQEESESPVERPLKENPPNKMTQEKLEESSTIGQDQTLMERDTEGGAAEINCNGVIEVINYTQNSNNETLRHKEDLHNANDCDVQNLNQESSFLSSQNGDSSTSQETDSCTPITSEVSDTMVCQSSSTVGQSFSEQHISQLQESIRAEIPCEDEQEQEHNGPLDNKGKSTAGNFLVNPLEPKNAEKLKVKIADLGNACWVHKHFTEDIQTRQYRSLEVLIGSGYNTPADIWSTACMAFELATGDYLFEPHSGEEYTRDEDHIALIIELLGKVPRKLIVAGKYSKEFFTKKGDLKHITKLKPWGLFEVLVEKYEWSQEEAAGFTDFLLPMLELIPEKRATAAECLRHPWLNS
T4 sequence (Q13555 whole entry): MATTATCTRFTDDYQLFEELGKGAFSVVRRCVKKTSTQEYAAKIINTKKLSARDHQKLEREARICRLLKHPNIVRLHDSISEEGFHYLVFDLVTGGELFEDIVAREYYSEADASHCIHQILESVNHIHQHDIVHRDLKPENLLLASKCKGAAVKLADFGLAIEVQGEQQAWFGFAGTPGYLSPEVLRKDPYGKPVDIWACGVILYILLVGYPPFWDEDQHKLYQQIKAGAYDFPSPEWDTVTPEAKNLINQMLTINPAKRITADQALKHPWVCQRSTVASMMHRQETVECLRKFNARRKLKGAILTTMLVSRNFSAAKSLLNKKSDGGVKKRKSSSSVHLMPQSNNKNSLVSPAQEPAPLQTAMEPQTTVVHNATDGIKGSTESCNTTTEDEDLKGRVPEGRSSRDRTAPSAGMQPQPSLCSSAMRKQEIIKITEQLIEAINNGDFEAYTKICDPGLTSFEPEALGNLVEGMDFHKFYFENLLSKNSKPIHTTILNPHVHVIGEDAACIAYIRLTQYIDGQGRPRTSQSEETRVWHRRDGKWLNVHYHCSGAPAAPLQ
T10 sequence (Q13557 whole entry): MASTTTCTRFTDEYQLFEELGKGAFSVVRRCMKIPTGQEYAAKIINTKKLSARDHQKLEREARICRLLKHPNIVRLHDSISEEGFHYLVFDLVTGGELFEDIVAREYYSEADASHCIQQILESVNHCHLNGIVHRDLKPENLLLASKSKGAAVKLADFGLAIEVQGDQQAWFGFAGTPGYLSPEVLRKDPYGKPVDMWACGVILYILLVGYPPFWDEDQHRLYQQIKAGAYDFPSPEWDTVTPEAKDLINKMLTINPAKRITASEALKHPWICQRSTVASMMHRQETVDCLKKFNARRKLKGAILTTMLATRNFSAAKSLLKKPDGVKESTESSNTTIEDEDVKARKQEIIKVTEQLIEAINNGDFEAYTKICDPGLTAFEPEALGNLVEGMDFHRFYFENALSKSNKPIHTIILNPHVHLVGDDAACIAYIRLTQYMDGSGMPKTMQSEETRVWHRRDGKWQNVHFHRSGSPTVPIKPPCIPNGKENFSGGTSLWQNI
T3 sequence (P07948 whole entry): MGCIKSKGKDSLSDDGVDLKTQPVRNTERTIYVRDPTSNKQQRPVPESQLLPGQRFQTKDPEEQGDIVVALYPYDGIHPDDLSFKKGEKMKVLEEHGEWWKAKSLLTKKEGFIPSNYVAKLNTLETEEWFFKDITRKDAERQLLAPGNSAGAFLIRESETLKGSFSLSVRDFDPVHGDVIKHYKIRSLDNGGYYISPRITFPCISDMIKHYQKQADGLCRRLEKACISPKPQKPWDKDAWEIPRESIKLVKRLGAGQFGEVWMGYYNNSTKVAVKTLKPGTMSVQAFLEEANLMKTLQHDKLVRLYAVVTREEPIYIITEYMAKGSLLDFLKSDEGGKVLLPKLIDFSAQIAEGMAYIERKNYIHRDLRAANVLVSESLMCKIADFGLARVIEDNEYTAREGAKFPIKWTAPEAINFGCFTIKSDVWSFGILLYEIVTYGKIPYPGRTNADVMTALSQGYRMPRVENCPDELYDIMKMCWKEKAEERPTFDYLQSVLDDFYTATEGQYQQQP

| SMILES | remaining activity at 10 µM [1] [%] | remaining activity at 10 µM [2] [%] | remaining activity at 10 µM [3] [%] | remaining activity at 10 µM [4] [%] | remaining activity at 10 µM ([5]; 10 μM) [%] | remaining activity at 10 µM [6] [%] | remaining activity at 10 µM [7] [%] | remaining activity at 10 µM [8] [%] | remaining activity at 10 µM [9] [%] | remaining activity at 10 µM [10] [%] | remaining activity at 10 µM [11] [%] | remaining activity at 10 µM [12] [%] | inhibition at 10 µM ([5]; 10 μM) [%] | IC50 ([5]; biochemical dose response, duplicate, read-out: Inhibition of indicated activity (IC50, μM): Yes) [µM] |
| --- | --- | --- | --- | --- | --- | --- | --- | --- | --- | --- | --- | --- | --- | --- |
| CC(C)(C)N1CCC(c2cc(-c3ccc(F)cc3Cl)c3cc[n+]([O-])c(-c4c(Cl)cccc4Cl)c3n2)CC1 [compound 2] | 89 | 111 | 104 | 91 | 107 | 103 | 103 | 103 | 105 | 100 | 112 | 83 |  |  |
| Cn1cc(-c2cccc(-c3nc(C(=O)NC4C5CC6CC4CC(O)(C6)C5)c(N)nc3N)c2)cn1 (centres unmarked) [compound 4] | 64 | 99 | 66 | 83 | 23 | 92 | 87 | 94 | 96 | 93 | 89 | 87 | 77 | 2.39 |
| CS(=O)(=O)N1CCN(c2ccc(Nc3ncc(C(N)=O)c(NC4CC4)n3)cc2)CC1 [compound 5] | 62 | 1 | 5 | 24 | 4 | 83 | 83 | 1 | 64 | 27 | 2 | 45 |  |  |

Second part, led by results:

| remaining activity at 10 µM [1] [%] | remaining activity at 10 µM [2] [%] | remaining activity at 10 µM [3] [%] | remaining activity at 10 µM [4] [%] | remaining activity at 10 µM ([5]; 10 μM) [%] | remaining activity at 10 µM [6] [%] | remaining activity at 10 µM [7] [%] | remaining activity at 10 µM [8] [%] | remaining activity at 10 µM [9] [%] | remaining activity at 10 µM [10] [%] | remaining activity at 10 µM [11] [%] | remaining activity at 10 µM [12] [%] | SMILES | inhibition at 10 µM ([5]; 10 μM) [%] | IC50 ([5]; biochemical dose response, duplicate, read-out: Inhibition of indicated activity (IC50, μM): Yes) [µM] |
| --- | --- | --- | --- | --- | --- | --- | --- | --- | --- | --- | --- | --- | --- | --- |
| 77 | 99 | 101 | 103 | 100 | 92 | 100 | 100 | 99 | 103 | 96 | 86 | Cc1ccc(C(=O)NCC2CC2)cc1-c1ccc2c(c1)NC(=O)C21CCCC1 [compound 3] |  |  |
| 146 | 104 | 66 | 102 | 99 | 100 | 103 | 103 | 114 | 96 | 110 | 109 | COc1c(NC(=O)c2ccc(C)c(-c3nnc4c(NCC(C)(C)C)nccn34)c2)cc(C(C)(C)C)cc1NS(C)(=O)=O [compound 7, reference compound] |  |  |
